Experimental data taken from ChEMBL document CHEMBL1909046, “DrugMatrix in vitro pharmacology data”.

Columns and labels:
[1] = molecular target: Tyrosine-protein kinase Fyn (Homo sapiens, UniProt P06241); experiment: biochemical; assay type: cell-based, Insect cells;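 note: enzymatic inhibition of Fyn kinase activity measured with Poly(Glu:Tyr) as the phosphorylation substrate; in other assays of this panel Not Active means under 50% inhibition at 10 µM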
[2] = molecular target: Sodium-dependent dopamine transporter (Homo sapiens, UniProt Q01959); experiment: DRUGMATRIX: Dopamine Transporter radioligand binding (ligand: [125I] RTI-55); assay type: cell membranes, CHO-K1, Membrane; details: Not Active = under 50% inhibition at 10 µM
[3] = molecular target: Protein phosphatase 3 catalytic subunit alpha (Homo sapiens, UniProt Q08209); parameters: species or system Escherichia coli;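 note: inhibition of calcineurin (PP2B) enzyme activity, measured with DiFMUP as the substrate; in other assays of this panel Not Active means under 50% inhibition at 10 µM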
[4] = DRUGMATRIX: Sigma2 radioligand binding (ligand: [3H] Ifenprodil); assay type: cell membranes, Rattus norvegicus, Wistar, Brain, Membrane; details: Not Active = under 50% inhibition at 10 µM
[5] = DRUGMATRIX: Leukotriene, BLT (LTB4) radioligand binding (ligand: [3H]LTB4); assay type: cell membranes, Membrane; details: u-937, Not Active = under 50% inhibition at 10 µM
[6] = DRUGMATRIX: Potassium Channel [KATP] radioligand binding (ligand: [3H] Glyburide); assay type: cell membranes, Membrane; details: hit-t15; Not Active = under 50% inhibition at 10 µM

Tyrosine-protein kinase Fyn, sequence (P06241 whole entry): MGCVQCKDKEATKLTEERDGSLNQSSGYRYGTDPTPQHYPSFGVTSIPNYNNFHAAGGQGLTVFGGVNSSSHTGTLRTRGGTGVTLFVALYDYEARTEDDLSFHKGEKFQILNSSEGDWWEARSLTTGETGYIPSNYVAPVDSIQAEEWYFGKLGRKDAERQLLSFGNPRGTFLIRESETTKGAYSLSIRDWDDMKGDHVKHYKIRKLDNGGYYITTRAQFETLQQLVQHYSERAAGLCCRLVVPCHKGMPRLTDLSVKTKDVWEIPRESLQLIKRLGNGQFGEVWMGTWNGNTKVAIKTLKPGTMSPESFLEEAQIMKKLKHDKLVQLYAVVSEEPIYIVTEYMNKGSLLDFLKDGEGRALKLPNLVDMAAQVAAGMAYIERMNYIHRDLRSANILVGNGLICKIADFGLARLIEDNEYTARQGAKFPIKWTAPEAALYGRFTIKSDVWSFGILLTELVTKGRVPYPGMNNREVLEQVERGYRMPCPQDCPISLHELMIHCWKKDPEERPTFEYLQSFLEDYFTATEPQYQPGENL
Sodium-dependent dopamine transporter, sequence (Q01959 whole entry): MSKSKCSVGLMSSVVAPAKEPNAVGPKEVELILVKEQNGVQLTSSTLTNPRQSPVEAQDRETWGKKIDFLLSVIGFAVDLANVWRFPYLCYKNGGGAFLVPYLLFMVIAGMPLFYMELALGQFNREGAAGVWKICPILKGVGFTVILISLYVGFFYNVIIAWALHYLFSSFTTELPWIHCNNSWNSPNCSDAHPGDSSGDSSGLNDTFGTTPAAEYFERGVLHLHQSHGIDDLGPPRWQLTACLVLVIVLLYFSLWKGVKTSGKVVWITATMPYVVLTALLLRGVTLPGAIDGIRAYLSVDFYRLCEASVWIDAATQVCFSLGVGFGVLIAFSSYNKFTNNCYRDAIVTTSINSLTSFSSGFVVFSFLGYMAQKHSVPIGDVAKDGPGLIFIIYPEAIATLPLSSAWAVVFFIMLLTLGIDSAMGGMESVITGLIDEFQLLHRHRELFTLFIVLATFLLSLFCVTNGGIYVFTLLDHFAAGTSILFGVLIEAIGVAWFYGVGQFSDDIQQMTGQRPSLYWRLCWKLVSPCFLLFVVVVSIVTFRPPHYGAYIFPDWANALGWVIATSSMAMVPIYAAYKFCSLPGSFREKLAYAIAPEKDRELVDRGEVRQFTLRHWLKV

Structure (SMILES)	IC50 ([1]; insect cells)	IC50 ([2]; cho-k1)	IC50 [3]	IC50 [4]	Ki [4]	IC50 [5]	Ki [5]	IC50 [6]	Ki [6]	IC50 ([2]; read-out: IC50) [µM]	Ki ([2]; read-out: Ki) [µM]	IC50 ([4]; read-out: IC50) [µM]	Ki ([4]; read-out: Ki) [µM]	IC50 ([5]; read-out: IC50) [µM]	Ki ([5]; read-out: Ki) [µM]	IC50 ([1]; read-out: IC50) [µM]
CC[C@@]1(O)C(=O)OCc2c1cc1n(c2=O)Cc2cc3c(CN(C)C)c(O)ccc3nc2-1 [TOPOTECAN]	Not Active	Not Active	Not Active	Not Active	Not Active	Not Active	Not Active	Not Active	Not Active	–	–	–	–	–	–	–
C#C[C@]1(O)CC[C@H]2[C@@H]3[C@H](C)CC4=C(CCC(=O)C4)[C@H]3CC[C@@]21C [TIBOLONE]	Not Active	Not Active	Not Active	Not Active	Not Active	Not Active	Not Active	Not Active	Not Active	–	–	–	–	–	–	–
Oc1ccc(/C=C/c2cc(O)cc(O)c2)cc1 [RESVERATROL]	Not Active	Not Active	Not Active	Not Active	Not Active	Not Active	Not Active	Not Active	Not Active	–	–	–	–	–	–	–
Cc1ccc(Cl)c(Nc2ccccc2C(=O)O)c1Cl [MECLOFENAMIC ACID]	Not Active	Not Active	Not Active	Not Active	Not Active	Not Active	Not Active	Not Active	Not Active	–	–	–	–	–	–	–
Cc1ccnc(NS(=O)(=O)c2ccc(N)cc2)n1 [SULFAMERAZINE]	Not Active	Not Active	Not Active	Not Active	Not Active	Not Active	Not Active	Not Active	Not Active	–	–	–	–	–	–	–
CCOc1cc(N)c(Cl)cc1C(=O)NCC1CN(Cc2ccc(F)cc2)CCO1 (stereo not given) [MOSAPRIDE]	Not Active	Not Active	Not Active	Not Active	Not Active	Not Active	Not Active	Not Active	Not Active	–	–	–	–	–	–	–
C[C@]12CCC(=O)C[C@@H]1CC[C@@H]1[C@@H]2CC[C@]2(C)[C@@H](O)CC[C@@H]12 [STANOLONE]	Not Active	Not Active	Not Active	Not Active	Not Active	Not Active	Not Active	Not Active	Not Active	–	–	–	–	–	–	–
C[N+]1(C)[C@@H]2C[C@@H](OC(=O)[C@H](CO)c3ccccc3)C[C@H]1[C@@H]1O[C@@H]12.[Br-] [METHSCOPOLAMINE BROMIDE]	Not Active	Not Active	Not Active	Not Active	Not Active	Not Active	Not Active	Not Active	Not Active	–	–	–	–	–	–	–
OC[C@@H](O)[C@@H](O)[C@H](O)[C@H](O)CO [MANNITOL]	Not Active	Not Active	Not Active	Not Active	Not Active	Not Active	Not Active	Not Active	Not Active	–	–	–	–	–	–	–
O=C(O)c1cc(/N=N/c2ccc(S(=O)(=O)Nc3ccccn3)cc2)ccc1O [SULFASALAZINE]	Not Active	Not Active	Not Active	Not Active	Not Active	Not Active	Not Active	Not Active	Not Active	–	–	–	–	–	–	–
CC1=C(/C=C/C(C)=C/C=C/C(C)=C/C(=O)O)C(C)(C)CCC1 [TRETINOIN]	Not Active	Not Active	Not Active	Not Active	Not Active	Not Active	Not Active	Not Active	Not Active	–	–	–	–	–	–	–
CC[C@H](C)C(=O)O[C@H]1CCC=C2C=C[C@H](C)[C@H](CC[C@@H]3C[C@@H](O)CC(=O)O3)[C@H]21 [MEVASTATIN]	Not Active	Not Active	Not Active	Not Active	Not Active	Not Active	Not Active	Not Active	Not Active	–	–	–	–	–	–	–
CCN(CC)C(=S)SSC(=S)N(CC)CC	Not Active	–	Not Active	–	–	–	–	Not Active	Not Active	4.64	3.68	75.6	46.5	29.9	7.58	–
O=[As][O-].[Na+] [SODIUM ARSENITE]	Not Active	Not Active	Not Active	Not Active	Not Active	Not Active	Not Active	Not Active	Not Active	–	–	–	–	–	–	–
CCN(CC)N=O [N-NITROSODIETHYLAMINE]	Not Active	Not Active	Not Active	Not Active	Not Active	Not Active	Not Active	Not Active	Not Active	–	–	–	–	–	–	–
Nc1nc(N)c2nc(-c3ccccc3)c(N)nc2n1	Not Active	Not Active	Not Active	Not Active	Not Active	Not Active	Not Active	Not Active	Not Active	–	–	–	–	–	–	–
CCN(CC)CCNC(=O)c1cc(Cl)c(N)cc1OC [METOCLOPRAMIDE]	Not Active	Not Active	Not Active	Not Active	Not Active	Not Active	Not Active	Not Active	Not Active	–	–	–	–	–	–	–
Cc1cc2c(s1)Nc1ccccc1N=C2N1CCN(C)CC1 [OLANZAPINE]	Not Active	Not Active	Not Active	–	–	–	–	–	–	–	–	–	–	–	–	–
Cc1nnc(NS(=O)(=O)c2ccc(N)cc2)s1 [SULFAMETHIZOLE]	Not Active	Not Active	Not Active	Not Active	Not Active	Not Active	Not Active	Not Active	Not Active	–	–	–	–	–	–	–
CC#C[C@]1(O)CC[C@H]2[C@@H]3CCC4=CC(=O)CCC4=C3[C@@H](c3ccc(N(C)C)cc3)C[C@@]21C [MIFEPRISTONE]	–	Not Active	Not Active	Not Active	Not Active	Not Active	Not Active	Not Active	Not Active	–	–	–	–	–	–	21.4
CS(=O)(=O)c1ccc(C2=C(c3ccccc3)C(=O)OC2)cc1 [ROFECOXIB]	Not Active	Not Active	Not Active	Not Active	Not Active	Not Active	Not Active	Not Active	Not Active	–	–	–	–	–	–	–
CC1(C)[C@H](C(=O)O)N2C(=O)C[C@H]2S1(=O)=O [SULBACTAM]	Not Active	Not Active	Not Active	Not Active	Not Active	Not Active	Not Active	Not Active	Not Active	–	–	–	–	–	–	–
CNCCCC12CCC(c3ccccc31)c1ccccc12 [MAPROTILINE]	Not Active	–	Not Active	–	–	–	–	–	–	–	–	–	–	–	–	–
CN1C[C@H](CNC(=O)OCc2ccccc2)C[C@@H]2c3cccc4c3c(cn4C)C[C@H]21 [METERGOLINE]	Not Active	–	Not Active	Not Active	Not Active	Not Active	Not Active	Not Active	Not Active	–	–	–	–	–	–	–
CN(C)CCC=C1c2ccccc2COc2ccccc21 [DOXEPIN]	Not Active	–	Not Active	–	–	–	–	–	–	–	–	–	–	–	–	–
